Values joined by “and” are separate entries in the source; they are usually repeats but may differ in a detail not shown here. Identical values can stand only once. Counter-ions that a name gives are not always drawn.
Columns and labels:
[1] = molecular target: T1, barnase (Bacillus amyloliquefaciens, UniProt P00648, H149A); conditions: for binding to barnase (in words): from curvature of chemical shift profiles; for mL for amide protons (1HN), mean ± standard deviation over residues: single co-solute titration up to 1 M, 5 mM acetate pH 5.8
T1 sequence (P00648 48-157 H149A): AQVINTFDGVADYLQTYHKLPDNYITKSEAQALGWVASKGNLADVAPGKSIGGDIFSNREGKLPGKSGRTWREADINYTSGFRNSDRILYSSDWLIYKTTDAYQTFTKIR
Protocol: (§1) For each titration point, protein 2D peak positions were measured and loaded into a database. […] We hypothesized that the hyperbolic parts indicate direct binding of the co-solute to the protein, while the linear parts represent indirect effects on the protein chemical shifts caused by interactions of the co-solute with the solvent, which thus leads to altered protein solvation. Linear changes in shift could also arise from co-solute-induced conformational changes in the protein. […] We therefore fitted the data to a sum of two equations: a hyperbolic curve plus a linear change. Fitting to the hyperbolic curve gives a resultant binding affinity, which can be tabulated as either a dissociation constant Kd (with units of concentration) or an association constant Ka (with units of reciprocal concentration). […] Thus in the analysis below, we use Ka when examining binding to the protein surface. We note that the linear change is in fact a binding curve with very weak affinity, and will therefore start to curve at some point. Based on the likely affinities, curvature is unlikely to become apparent until the co-solute reaches a concentration of several M.
(§2) For fitting shift changes to obtain the dissociation constant, one would normally use a quadratic equation[36]:1 Δδobs=Δδmax{([P]i+[L]i+Kd)–[([P]i+[L]i+Kd)^2−4[P]i[L]i]^1/2}/2[P]I
(§3) We have therefore used it throughout. The complete equation used here for fitting the experimental shift changes is therefore3 Δδobs=Δδmax.Li/Kd+Li+mLLi which gives three fitted values for each nucleus: Kd, Δδmax, and mL. mL is the gradient of the linear component, and gives information on the indirect effect of the co-solute on protein chemical shifts via its effect on solvent. […] We discuss later the significance of mL: for present purposes, it is an empirical parameter that describes how the co-solute affects the protein indirectly via solvent.
(§4) For these reasons, all experiments were carried out using 5 mM acetate, pH 5.8, conditions that gave reproducible peak positions while using only a very low concentration of additional solutes.
(§5) Chemical shifts of ^1HN, ^15N, and ^13C’ were measured and fitted to Eq. (3).

[2] = system: protein surfaces; conditions: molecular dynamics; ref Vrbka et al J Phys Chem B 2006 110:7036-7043; cited from earlier work
[3] = molecular target: T1, barnase; experiment: biochemical; conditions: average dissociation constant Kd at thiocyanate binding region, residues 35–46, 81–86; single binding site assumed; pH 5.8
Protocol: as §1, §2, §3, §4, §5

SMILES | binding to barnase (in words) [1] | mL for amide protons (1HN), mean ± standard deviation over residues [1] | average Ka over all nuclei ([1]; osmolyte titrations, average over residues that could be fitted) | contact times with protein surfaces in water [2] | average Ka ([1]; average over binding-site residues 35–46 and 81–86, 1HN, 15N, 13C' nuclei) | Kd [3]
C[N+](C)(C)[O-] [TMAO, trimethylamine N-oxide] | only very weak binding | +9.7 ± 16.9 ppb/M |  |  |  | 
C[N+](C)(C)CC(=O)O [betaine, N-trimethyl glycine] | no binding | +4.3 ± 15.9 ppb/M | no evidence of any binding |  |  | 
Cl [chloride, sodium chloride] | overall weaker binding | –16 ± 26 ppb/M |  | 0.1-0.8 ns |  | 
CC1=N[C@H](C(=O)O)CCN1 [ectoine] | very little binding | +16.5 ± 21.3 ppb/M |  |  |  | 
O=S(=O)(O)O [sulfate, sodium sulfate] |  |  |  | 0.1-0.8 ns |  | 
N#CS [thiocyanate, sodium thiocyanate] |  | –51 ± 51 ppb/M |  |  | about 45 M^−1 | 22 mM and ~22 mM
